These results are taken from patent US12655175B2, “C17, C20, and C21 substituted neuroactive steroids and their methods of use” (Sage Therapeutics, LLC, priority 2016, dated 2026).

pIC50: −log10 of the molar value.

For the test, the target named is GABAA receptor. As to the kind of experiment: Steroid inhibition of [35S]-TBPS binding. The conditions noted are these: rat brain cortical membranes, 3 nM [35S]-TBPS, in the presence of 5 mM GABA. Here is the method: Steroid Inhibition of TBPS Binding
Briefly, cortices are rapidly removed following decapitation of carbon dioxide-anesthetized Sprague-Dawley rats ([…]). The cortices are homogenized in 10 volumes of ice-cold 0.32 M sucrose using a glass/teflon homogenizer and centrifuged at 1500×g for 10 min at 4° C. The resultant supernatants are centrifuged at 10,000×g for 20 min at 4° C. to obtain the P2 pellets. The P2 pellets are resuspended in 200 mM NaCl/50 mM Na—K phosphate pH 7.4 buffer and centrifuged at 10,000×g for 10 min at 4° C. This washing procedure is repeated twice and the pellets are resuspended in 10 volumes of buffer. Aliquots ([…]) of the membrane suspensions are incubated with 3 nM [^35S]-TBPS and […] aliquots of test drug dissolved in dimethyl sulfoxide (DMSO) (final 0.5%) in the presence of 5 mM GABA. The incubation is brought to a final volume of 1.0 mL with buffer. […] Following a 90 min incubation at room temp, the assays are terminated by filtration through glass fiber filters (Schleicher and Schuell No. 32) using a cell harvester (Brandel) and rinsed three times with ice-cold buffer. Filter bound radioactivity is measured by liquid scintillation spectrometry. Non-linear curve fitting of the overall data for each drug averaged for each concentration is done using Prism (GraphPad).
Various compounds are or can be screened to determine their potential as modulators of [^35S]-TBPS binding in vitro. These assays are or can be performed in accordance with the above discussed procedures.

Consider `C[C@@]1(O)CC[C@H]2[C@@H](CC[C@@H]3[C@@H]2CC[C@@]2(C)[C@H]3CCC2(O)c2ccccc2)C1` (stereo in doubt) [Compound 100], for which the pIC50 is < 6.30. The value for `C[C@H]1CCCCN1C(=O)[C@H]1CC[C@H]2[C@@H]3CC[C@@H]4C[C@](C)(O)CC[C@@H]4[C@H]3CC[C@]12C` [Compound 28] was 6.30 to 7.00; that for `C[C@@]1(O)CC[C@H]2[C@H](CC[C@@H]3[C@@H]2CC[C@]2(C)[C@@H](c4cncnc4)CC[C@@H]32)C1` [Compound 104] was 7.00 to 7.30. Consider `CN(C(=O)[C@H]1CC[C@H]2[C@@H]3CC[C@@H]4C[C@](C)(O)CC[C@@H]4[C@H]3CC[C@]12C)c1ccccc1` [Compound 7], for which the negative-log IC50 (pIC50) was < 6.30. Take `CC1(O)CC[C@H]2[C@@H]3CC[C@@H]4C[C@](C)(O)CC[C@@H]4[C@H]3CC[C@@]21C` (stereo partly drawn) [Compound 126]: the pIC50 is < 6.30.

With `CO[C@H]1C[C@]2(C)[C@@H]([N+](=O)[O-])CC[C@H]2[C@@H]2CC[C@H]3C[C@H](O)[C@@H](OC)C[C@]3(C)[C@H]21` [Compound 119], the pIC50 is 7.30 to 8.00. The value for `C[C@@]1(O)CC[C@H]2[C@H](CC[C@@H]3[C@@H]2CC[C@]2(C)[C@@H](C(=O)NC4CCOCC4)CC[C@@H]32)C1` [Compound 29] was < 6.30. `C[C@@H]1CCCCN1C(=O)[C@H]1CC[C@H]2[C@@H]3CC[C@@H]4C[C@](C)(O)CC[C@@H]4[C@H]3CC[C@]12C` [Compound 25]: the negative logarithm of the IC50 (pIC50) was 6.30 to 7.00. Turning to `CCOC[C@@]1(O)CC[C@H]2[C@H](CC[C@@H]3[C@@H]2CC[C@]2(C)[C@@H](C(=O)CNc4ccccc4)CC[C@@H]32)C1` [Compound 84], the pIC50 is 7.30 to 8.00. On to `CCOC[C@@]1(O)CC[C@H]2[C@H](CC[C@@H]3[C@@H]2CC[C@]2(C)[C@@H](C(=O)N[C@H](C)c4ccc(C#N)cc4)CC[C@@H]32)C1` [Compound 48], for which the pIC50 is 6.30 to 7.00.

Take `C[C@@H](NC(=O)[C@H]1CC[C@H]2[C@@H]3CC[C@@H]4C[C@](C)(O)CC[C@@H]4[C@H]3CC[C@]12C)c1ccccc1` [Compound 20]: the pIC50 is 6.30 to 7.00. The value for `C[C@@]1(O)CC[C@H]2[C@H](CC[C@@H]3[C@@H]2CC[C@]2(C)[C@@H](c4ccncc4)CC[C@@H]32)C1` [Compound 103] was 7.30 to 8.00; that for `CN(Cc1cccnc1)C(=O)[C@H]1CC[C@H]2[C@@H]3CC[C@@H]4C[C@](C)(O)CC[C@@H]4[C@H]3CC[C@]12C` [Compound 16] was 6.30 to 7.00; that for `CCOC[C@@]1(O)CC[C@H]2[C@H](CC[C@@H]3[C@@H]2CC[C@]2(C)[C@@H](C(=O)N[C@H](CC)c4ccc(F)cc4)CC[C@@H]32)C1` [Compound 58] was < 6.30.

Regarding `CN(CC(=O)[C@H]1CC[C@H]2[C@@H]3CC[C@H]4C[C@@](O)(C(F)(F)F)CC[C@]4(C)[C@H]3CC[C@]12C)c1ccccc1` [Compound 74], the pIC50 was < 6.30. For the compound `C[C@@]1(O)CC[C@H]2[C@H](CC[C@@H]3[C@@H]2CC[C@]2(C)[C@@H](C(=O)NC4CCCCC4)CC[C@@H]32)C1` [Compound 8], the pIC50 was 7.00 to 7.30. The value for `COC[C@]12CC[C@@](C)(O)C[C@H]1CC[C@H]1[C@@H]3CC[C@H](C(=O)CNc4ccccc4)[C@@]3(C)CC[C@@H]12` [Compound 76] was > 8.00; that for `C[C@@]1(O)CC[C@H]2[C@H](CC[C@@H]3[C@@H]2CC[C@]2(C)[C@@H](C(=O)Nc4ccc(F)cc4C#N)CC[C@@H]32)C1` [Compound 37] was 7.30 to 8.00. The value for `C[C@@]1(O)CC[C@H]2[C@H](CC[C@@H]3[C@@H]2CC[C@]2(C)[C@@H](C(=O)N4CC[C@H](c5ccccc5)C4)CC[C@@H]32)C1` [Compound 31] was 7.00 to 7.30. Take `CCN(CC)C(=O)[C@H]1CC[C@H]2[C@@H]3CC[C@@H]4C[C@](C)(O)CC[C@@H]4[C@H]3CC[C@]12C` [Compound 2]: the pIC50 was 6.30 to 7.00.

`CC[C@@H](NC(=O)[C@H]1CC[C@H]2[C@@H]3CC[C@@H]4C[C@](C)(O)CC[C@@H]4[C@H]3CC[C@]12C)c1ccc(F)cc1` (single isomer, unassigned) [Compound 34]: the pIC50 is 6.30 to 7.00. Regarding `C[C@@]1(O)CC[C@H]2[C@H](CC[C@@H]3[C@@H]2CC[C@]2(C)[C@@H](c4ccc(C#N)cc4)CC[C@@H]32)C1` [Compound 110], the negative logarithm of the IC50 (pIC50) was 7.30 to 8.00. As to `COC[C@]12CC[C@](O)(C(F)(F)F)C[C@H]1CC[C@H]1[C@@H]3CC[C@H](C(=O)N(C)Cc4ccccc4)[C@@]3(C)CC[C@@H]12` [Compound 79], the pIC50 is 6.30 to 7.00. In the case of `CN(C(=O)[C@H]1CC[C@H]2[C@@H]3CC[C@@H]4C[C@](C)(O)CC[C@@H]4[C@H]3CC[C@]12C)C1CCOCC1` [Compound 10], the pIC50 is 6.30 to 7.00. As to `C[C@@]1(O)CC[C@H]2[C@H](CC[C@@H]3[C@@H]2CC[C@]2(C)[C@@H](C(=O)Nc4ccccc4)CC[C@@H]32)C1` [Compound 3], the pIC50 is > 8.00. The value for `C[C@@]1(O)CC[C@H]2[C@H](CC[C@@H]3[C@@H]2CC[C@]2(C)[C@@H](C4CCOCC4)CC[C@@H]32)C1` [Compound 107] was < 6.30; that for `CCOC[C@@]1(O)CC[C@H]2[C@@H](CC[C@@H]3[C@@H]2CC[C@]2(C)[C@@H](C(=O)CNc4ccccc4)CC[C@@H]32)C1` [Compound 86] was 6.30 to 7.00; that for `CCOC[C@@]1(O)CC[C@H]2[C@H](CC[C@@H]3[C@@H]2CC[C@]2(C)[C@@H](C(=O)N4CCC[C@H]4c4ncco4)CC[C@@H]32)C1` [Compound 55] was < 6.30.

In the case of `CN(CCc1ccccc1)C(=O)[C@H]1CC[C@H]2[C@@H]3CC[C@@H]4C[C@](C)(O)CC[C@@H]4[C@H]3CC[C@]12C` [Compound 18], the pIC50 was 7.00 to 7.30.

With `CCOC[C@@]1(O)CC[C@H]2[C@H](CC[C@@H]3[C@@H]2CC[C@]2(C)[C@@H](C(=O)N4CCc5ccccc5C4)CC[C@@H]32)C1` [Compound 44], the pIC50 was 7.00 to 7.30. Take `C[C@H](c1ccccc1)N(C)C(=O)[C@H]1CC[C@H]2[C@@H]3CC[C@@H]4C[C@](C)(O)CC[C@@H]4[C@H]3CC[C@]12C` [Compound 32]: the pIC50 was 7.30 to 8.00.

With `C[C@@]1(O)CC[C@H]2[C@H](CC[C@@H]3[C@@H]2CC[C@]2(C)[C@@H](C(=O)N4CCCc5ccccc54)CC[C@@H]32)C1` [Compound 35], the negative logarithm of the IC50 (pIC50) was 6.30 to 7.00.

`C[C@@]1(O)CC[C@@]2(C)[C@@H](CC[C@@H]3[C@@H]2CC[C@]2(C)[C@@H](OCc4ccccc4)CC[C@@H]32)C1` [Compound 112]: the pIC50 is < 6.30.

By pIC50 is commonly meant −log10 of the IC50, conventionally taken in molar units.
